Source: patent US20150118179A1, “BIOCIDAL COMPOUNDS AND METHODS FOR USING SAME” (UNIVERSITY OF MANITOBA, priority 2012, published 2015)
Values joined by “and” are separate entries in the source; they are usually repeats but may differ in a detail not shown here. Equal entries are not always repeated.

Assays:
[1] = system: methicillin resistant Staphylococcus aureus (MRSA 40065); type: cell-based; details: Table 10, contact 1-60 min, inoculum 10^6 cfu/ml
Description: (§1) Pseudomonas aeruginosa (P. aeruginosa) (#73104, Gram-negative) and Staphylococcus aureus (MRSA) (#40065, Gram-positive) were used as the model microorganism to challenge the antibacterial function of the compounds. It should be noticed that both P. aeruginosa and MRSA are biosafety level 2 microorganisms and potentially biohazardous, therefore the following antibacterial assessments were carried out in a Biological Safety Level 2 cabinet and safety precautions were strictly followed.
(§2) Tryptone Soya agar plates were used as platforms for bacterial cell growth and were prepared following the instructions on the bottle (CM 0131, OXOID). The prepared agar was kept at 65° C. after being autoclaved and the resulting agar plates were stored in fridge at 3-4° C. All glassware and related materials were subjected to autoclave or disinfection with 70% ethanol prior to use.
(§3) Several colonies of each bacteria type were suspended in broth solutions (cation-supplemented Mueller-Hinton broth for P. aeruginosa and tryptic soy broth for MRSA) whose concentrations were equivalent to a 0.5 McFarland standard (1×10^8 cfu/ml). This suspension was then diluted 1:100 and 20 μL of the diluted suspension was further diluted in 60 ml of cation-supplemented Mueller-Hinton broth or tryptic soy broth. Then the prepared bacteria inoculums were incubated overnight at 37° C. to obtain logarithmic-phase cultures. For each microbial study, 0.2 ml (0.02 ml for P. aeruginosa) of the cell suspension was diluted in 19.8 mL (19.98 ml for P. aeruginosa) of phosphate-buffered Saline (PBS, 0.1 M Sodium phosphate monobasic, 0.1 M Sodium phosphate dibasic, pH 7.4) to give a cell concentration of 10^6-10^7 cfu/mL (10^5 cfu/ml for P. aeruginosa). 30 μL of each synthesized compound solution (0.28 N stock solution) were added into the cell suspension to achieve a [Cl^+] of 15 ppm and start timing instantly. The mixture was vortexed several times during the reaction. After contact for the desired time intervals, 1.0 ml cell suspension was withdrawn and added to 1.0 ml of 0.02 N sodium thiosulfate and/or Letheen (1% lecithin, 10% peptone and 0.5% tween 80 dissolved in PBS at pH 7.4) to quench the bactericidal effect. The quenched suspension was then serially diluted (10 times less concentrated than the previous one) and 100 μL of each dilution was placed onto agar plates. The same procedure was applied to the blanks as controls with the same matrices but with no synthesized compounds added. Bacterial colonies on the agar plates were enumerated after being incubated at 37° C. for 22 hours.
(§4) Percentage reduction of bacteria (%)=(A−B)/A×100
(§5) Where A is the number of bacterial colonies in the control (cfu/mL), and B is the number of bacteria colonies under the effect of the synthesized compounds.

[2] = system: P. aeruginosa (73104); assay: Antibacterial assessment in PBS suspension (Example 19); type: cell-based, Pseudomonas aeruginosa; details: Table 10, contact 3-60 min, inoculum 10^5 cfu/ml
Description: as §1, §2, §3, §4, §5

[3] = system: CA-MRSA 40065; assay: Biocidal activity in bacterial suspension (Example 18); type: cell-based, Staphylococcus aureus; details: 15 ppm [Cl+]
Description: Logarithmic-phase cultures of MRSA were prepared using similar way except TSA broth was used instead.
(§6) Biocidal activity of synthetic compounds was completed as followed. To 20 mL of bacterial suspension (10^5 or 10^6 cfu/mL) in a centrifuge tube was added 30 μL solution of synthetic compounds (0.282 M stock solution) to achieve a final [Cl^+] of 15 ppm. Timing of the exposure to the disinfectant was started immediately with the addition of the synthetic compound. After predetermined contact time, 1.0 mL aliquots were withdrawn and added to an equal volume of 0.02 N sodium thiosulfate in PBS (0.1 M, pH 7.4). The quenched suspension was serially diluted and 100 μL of each resulting dilution was placed onto nutrient agar plates. After being incubated at 37° C. for 24 hours, the viable bacterial colonies on the plates were counted. Bacterial reduction was reported according to:
as §4
(§7) Log reduction=Log(A/B) (4)
(§8) where A is the number of bacteria in the starting inoculum (cfu/mL), and B is the number of bacteria retrieved from synthetic compounds (cfu/mL).

[4] = system: P. aeruginosa 73104; assay: as above; type: cell-based, Pseudomonas aeruginosa; details: 15 ppm [Cl+]; for Reduction of P. aeruginosa: 10^6 cfu/mL P. aeruginosa, within 60 min of contact
Description: Logarithmic-phase cultures of P. aeruginosa were prepared by initially suspending several colonies in cation-supplemented Mueller-Hinton broth (Oxoid, Nepean, Ontario, Canada) at a density equivalent to a 0.5 McFarland standard (1×10^8 cfu/mL). This suspension was then diluted 1:100 and 20 μL of the diluted suspension was further diluted in 60 mL of cation-supplemented Mueller-Hinton broth. Following overnight growth at 37° C., suspensions were diluted 1:[…] to get inoculums of approximately 1×10^6 or 1×10^5 cfu/mL.
as §6, §4, §7, §8

[5] = Table 2, contact 3 min, inoculum 1.57-1.75 × 10^6 CFU/mL
[6] = Table 2, contact 5 min, inoculum 1.57-1.75 × 10^6 CFU/mL
[7] = Table 2, contact 10 min, inoculum 1.57-1.75 × 10^6 CFU/mL
[8] = Table 2, contact 60 min, inoculum 1.57-1.75 × 10^6 CFU/mL
[9] = Table 3, contact 3 min, inoculum 2.26 × 10^5 CFU/mL
[10] = Table 3, contact 5 min, inoculum 2.26 × 10^5 CFU/mL
[11] = Table 3, contact 10 min, inoculum 2.26 × 10^5 CFU/mL
[12] = Table 3, contact 60 min, inoculum 2.26 × 10^5 CFU/mL
[13] = Table 3, contact 90 min, inoculum 2.26 × 10^5 CFU/mL
[14] = Table 4, contact 3 min, inoculum 2.26-2.98 × 10^5 CFU/mL
[15] = Table 4, contact 5 min, inoculum 2.26-2.98 × 10^5 CFU/mL
[16] = Table 4, contact 10 min, inoculum 2.26-2.98 × 10^5 CFU/mL
[17] = Table 4, contact 20 min, inoculum 2.26-2.98 × 10^5 CFU/mL
[18] = Table 4, contact 30 min, inoculum 2.26-2.98 × 10^5 CFU/mL
[19] = Table 4, contact 45 min, inoculum 2.26-2.98 × 10^5 CFU/mL
[20] = Table 4, contact 60 min, inoculum 2.26-2.98 × 10^5 CFU/mL
[21] = Table 2, contact 1 min, inoculum 1.57-1.75 × 10^6 CFU/mL
[22] = Table 5, contact 3 min, inoculum 2.83 × 10^6 cfu/mL
[23] = Table 5, contact 5 min, inoculum 2.83 × 10^6 cfu/mL
[24] = Table 5, contact 10 min, inoculum 2.83 × 10^6 cfu/mL
[25] = Table 5, contact 20 min, inoculum 2.83 × 10^6 cfu/mL
[26] = Table 5, contact 30 min, inoculum 2.83 × 10^6 cfu/mL
[27] = Table 5, contact 45 min, inoculum 2.83 × 10^6 cfu/mL
[28] = Table 5, contact 60 min, inoculum 2.83 × 10^6 cfu/mL

Structure (SMILES)	Bacteria reduction % [3, 5]	Bacteria reduction Log10 [3, 5]	Bacteria reduction % [3, 6]	Bacteria reduction Log10 [3, 6]	Bacteria reduction % [3, 7]	Bacteria reduction Log10 [3, 7]	Bacteria reduction % [4, 14]	Bacteria reduction Log [4, 14]	Bacteria reduction % [4, 15]	Bacteria reduction Log [4, 15]	Bacteria reduction % [4, 16]	Bacteria reduction Log [4, 16]	Bacteria reduction % [4, 17]	Bacteria reduction Log [4, 17]	Bacteria reduction % [4, 18]	Bacteria reduction Log [4, 18]	Bacteria reduction % [4, 19]	Bacteria reduction Log [4, 19]	Bacteria reduction % [4, 20]	Bacteria reduction Log [4, 20]	further results
CCCCCC[N+](C)(C)CCCN1C(=O)NC(C)(C)C1=O [Compound 5]	–	–	–	–	–	–	–	–	–	–	–	–	–	–	–	–	–	–	–	–	Bactericidal effect (bacteria reduction at various contact time) [1]: No bactericidal effect; Bactericidal effect (bacteria reduction at various contact time) [2]: No bactericidal effect
CC1(C)C(=O)N(CCC[N+](C)(C)CC[N+](C)(C)C)C(=O)N1Cl.[Cl-].[Cl-] [Compound 12]	88.0%	0.92 Log10	92.3%	0.92 Log10	94.2%	1.24 Log10	39.8%	0.22 Log	44.7%	0.26 Log	62.8%	0.43 Log	99.70%	2.50 Log	100%	4.82 Log	100%	5.47 Log	100%	5.47 Log	Bacteria reduction % [3, 8]: 99.5%; Bacteria reduction Log10 [3, 8]: 2.31 Log10; Reduction of P. aeruginosa [4]: cannot bring any significant reduction; Bacteria reduction % [4, 9]: 39.8 ± 10.0%; Bacteria reduction % [4, 10]: 44.7 ± 1.9%; Bacteria reduction Log10 [4, 11]: 0.43 ± 0.01 Log10; Bacteria reduction % [4, 12]: 100%; Bacteria reduction Log10 [4, 12]: 5.35 Log10; Bacteria reduction % [4, 13]: 100%; Bacteria reduction Log10 [4, 13]: 5.35 Log10
CC1(C)C(=O)N(CCC[N+](C)(C)CCCN2C(=O)N(Cl)C(C)(C)C2=O)C(=O)N1Cl.[Cl-] [Compound 14]	79.1%	0.68 Log10	64.3%	0.45 Log10	91.9%	1.09 Log10	22.6%	0.11 Log	24.8%	0.13 Log	26.6%	0.14 Log	70.8%	–	99.96%	3.39 Log	100%	5.47 Log	100%	5.47 Log	Bacteria reduction % [3, 21]: 85.8%; Bacteria reduction Log10 [3, 21]: 0.85 Log10; Bacteria reduction % [3, 8]: 99.5%; Bacteria reduction Log10 [3, 8]: 2.32 Log10; Reduction of P. aeruginosa [4]: cannot bring any significant reduction; Bacteria reduction % [4, 9]: 22.6 ± 4.4%; Bacteria reduction % [4, 10]: 24.8 ± 10.0%; Bacteria reduction % [4, 11]: 26.6% and 26.6 ± 12.5%; Bacteria reduction Log10 [4, 11]: 0.14 ± 0.07 Log10; Bacteria reduction % [4, 12]: 100%; Bacteria reduction Log10 [4, 12]: 5.35 Log10; Bacteria reduction % [4, 13]: 100%; Bacteria reduction Log10 [4, 13]: 5.35 Log10
CCCCCCCCCCCC[N+](C)(C)CCn1cc(C[N+](C)(C)CCCN2C(=O)NC(C)(C)C2=O)nn1 [Compound 15]	–	–	–	–	–	–	75.7%	0.74 Log	98.4%	1.88 Log	99.9%	3.02 Log	99.97%	4.32 Log	100%	5.47 Log	100%	5.47 Log	100%	5.47 Log	Bacteria reduction % [3, 22]: 86.9%; Bacteria reduction % [3, 23]: 79.5%; Bacteria reduction Log [3, 23]: 0.69 Log; Bacteria reduction % [3, 24]: 85.1%; Bacteria reduction Log [3, 24]: 0.83 Log; Bacteria reduction % [3, 25]: 67.8%; Bacteria reduction Log [3, 25]: 0.49 Log; Bacteria reduction % [3, 26]: 79.8%; Bacteria reduction Log [3, 26]: 0.70 Log; Bacteria reduction % [3, 27]: 92.6%; Bacteria reduction Log [3, 27]: 1.13 Log; Bacteria reduction % [3, 28]: 87.3%; Bacteria reduction Log [3, 28]: 0.89 Log; Bacteria reduction % ([3]; independent of contact duration (3-60 minutes)): around 80%
CCCCCCCCCCCC[N+](C)(C)CCn1cc(C[N+](C)(C)CCCN2C(=O)N(Cl)C(C)(C)C2=O)nn1 [Compound 16]	–	–	–	–	–	–	99.6%	2.62 Log	99.97%	4.32 Log	100%	5.47 Log	100%	5.47 Log	100%	5.47 Log	100%	5.47 Log	100%	5.47 Log	Bacteria reduction % [3, 22]: 84.4%; Bacteria reduction % [3, 23]: 93.4%; Bacteria reduction Log [3, 23]: > 1 Log and 1.18 Log; Bacteria reduction % [3, 24]: 99.8%; Bacteria reduction Log [3, 24]: 2.77 Log; Bacteria reduction % [3, 25]: 100%; Bacteria reduction Log [3, 25]: 6.45 Log; Bacteria reduction % [3, 26]: 100%; Bacteria reduction Log [3, 26]: 6.45 Log; Bacteria reduction % [3, 27]: 100%; Bacteria reduction Log [3, 27]: 6.45 Log; Bacteria reduction % [3, 28]: 100%; Bacteria reduction Log [3, 28]: 6.45 Log
